Marks after values point to notes of the source that are not given here.
How the values were obtained:
[1] = system: pancreatic cell lines (PCLs); experiment: Chemosensitivity of pancreatic cell lines by MUC5AC expression level; type: cell-based
From the text: It was also shown that MUC5AC detected by CLH2 (immature) and 45M1 (mature) mabs are differently localized (Ho, J. J., et al., Secretion of MUC5AC mucin from pancreatic cancer cells in response to forskolin and VIP. Biochem Biophys Res Commun, 2002. 294(3): p. 680-6). NPC-1C-specific (immunogenic) MUC5AC has a distribution similar to mature MUC5AC. It can therefore be concluded that there are differences in chemosensitivities MUC5AC^negative MUC5AC^low to moderate and MUC5AC^high pancreatic cell lines (PCLs).
Thus, adding localization and other isoform data to the level of mature MUC5AC expression gives a better predictive signal in PDA patients.

[2] = system: MUC5AC; experiment: Serum MUC5AC by ELISA kit in PDA patients; type: in vivo, human; details: recurrent group, adjuvant therapy
From the text: One hundred resected PDA specimens and serum samples were collected. 43 patients had neoadjuvant therapy (NAT), and 57 had upfront surgery (UpS). The cellular expression of MUC5AC was studied in the resected formalin-fixed paraffin-embedded tissue through immunohistochemistry using 45M1 and CLH2 antibodies. The expression levels in the tissue were estimated using H-score intensity (0-3)X % of tumor cells with expression with results ranging from 0-300. The presence or absence of extracellular (EC) expression was also studied. Below is a summary of some significant findings. • CLH2-MUC5AC was identified in the perinuclear region or cytoplasm, while 45M1-MUC5AC was identified in apical and EC regions. […] Human serum MUC5AC levels were analyzed using the Human MUC5AC ELISA Kit (Catalog number NBP2-76703, Novus Biologicals, Centennial, CO). 45M1 and CLH2 could not be detected in the serum samples, but the commercially available kits allowed detection and measuring of MUC5AC. […]
There was an analysis of patients with serum MUC5AC levels available post-NAT […] to understand if serum MuC5AC levels help predict treatment response. […] The correlation between tissue (45M1 and CLH2) and serum MUC5AC levels was analyzed as the former correlated with treatment response in NAT-group.

[3] = system: MUC5AC; experiment: Immunohistochemistry of MUC5AC glycoforms (45M1, CLH2) in resected PDA tissue, H-score and extracellular detection; type: in vivo, human; details: neoadjuvant therapy group by chemotherapy
Procedure: Immunohistochemistry. […] The assay methodology development, optimization, and validation mirrors any new clinical immunohistochemical assay development in the laboratory. […] Briefly, the assay is performed on automated Stainer's (Leica Bond or Dako) in the laboratory. Appropriate positive (e.g., normal stomach) and negative tissue (e.g. normal pancreas) controls are used to optimize and validate the assay. The best pretreatment and antibody detection systems are determined using the manufacturer's antibody datasheet, and titration of at least three antibody dilutions are performed. If there is no recommendation from the manufacturer, the antibody is tested by trying the different lab pretreatment and detection system methods in order to determine the best method. Antibody dilutions may need to be optimized, depending on the results of initial testing. A pathologist reviews the slides from the validation run to determine the optimal methodology. Assessment of MUC5AC immunohistochemical staining. The immunohistochemical-labelled whole tumor section slides is reviewed by a pathologist with expertise in pancreaticobiliary pathology. The slides are reviewed for the expression patterns (Cytoplasmic vs Membranous) and scored for the extent (% of tumor stain) and intensity of staining (Negative 0, mild 1+, moderate 2+ and strong +3). A semiquantitative approach of H-score is assigned to tumor samples for statistical analysis. […] Tumor with scores <10 are considered as negative for expression. […] One hundred resected PDA specimens and serum samples were collected. 43 patients had neoadjuvant therapy (NAT), and 57 had upfront surgery (UpS). […] The presence or absence of extracellular (EC) expression was also studied. […] NR vs. […] Five of them were heavily treated with systemic therapy. […] Serum samples for the patients were collected at different time points of the management. This allowed for studying the relationship between serum MUC5AC with the known pancreatic cancer tumor marker CA 19-9 and MUC5AC's role in predicting treatment response. […] PR vs. […] The CA 19-9 levels followed the same trend (nCR vs. PR vs. NR=129 vs. 452 vs. 958, p>0.05). […] This can explain larger tumors in these groups. […] It should be noted that CA 19-9 levels were very high but not statistically significant in lower MUC5AC groups. One key takeaway from this is that PFS is not only driven by the pathological response in NAT group. Clinically, this may translate into guiding the physicians about the timing of surgery while on systemic therapy. […] OR vs. NR, 2.64 vs. 0.9, p=0.05). • There were 17 patients within 8 weeks of surgery, 9 within 5 weeks, and 8 from 5-8 weeks. The mean MUC5AC was lower than the ones noted in the pretreatment/presurgery population (1.2 ng/mL). […] The pathological response noted on the resected sample in NAT-group reported from the scale of 1-3 based on the treatment response. For practical purposes, patients with extensive tumors with no evident tumor regression or 3 were designated as the no-response (NR) group. Patients with residual tumors with evidence of regression or 2 and near complete response or single cells or small group of cancer cells or 1 were considered as partial-response (PR) or near complete-response (nCR), respectively.

[4] = compared with MUC5AC low to moderate PCLs
[5] = compared with MUC5AC negative PCLs

Structure (SMILES) | chemosensitivity of MUC5AC high PCLs [1, 4] | chemosensitivity of MUC5AC high PCLs [1, 5] | Serum MUC5AC ([2]; after chemotherapy) | Serum MUC5AC ([2]; before chemotherapy) | 45M1 H-score mean [3] | 45M1 H-score median (range) [3] | 45M1 detection rate [3] | CLH2 H-score mean [3] | CLH2 H-score median (range) [3] | CLH2 detection rate [3] | EC-45M1 detection rate [3]
Nc1ccn([C@@H]2O[C@H](CO)[C@@H](O)C2(F)F)c(=O)n1 [Gem, gemcitabine] | resistant | resistant | 5.3* ng/mL | 1.1 ng/mL | 116 | 150 (10-210) | 100% | 150)/90 | 120 | 100% | 60%
N.N.[Cl][Pt][Cl] [Cisplatin, cisplatin] | more sensitive | more sensitive | – | – | – | – | – | – | – | – | –
CCc1c2c(nc3ccc(OC(=O)N4CCC(N5CCCCC5)CC4)cc13)-c1cc3c(c(=O)n1C2)COC(=O)[C@]3(O)CC [Irinotecan, irinotecan] | – | more sensitive | – | – | – | – | – | – | – | – | –
O=c1[nH]cc(F)c(=O)[nH]1 [5FU, fluorouracil] | more sensitive | more sensitive | – | – | 130 | 105 (0-270) | 89% | 126 | 95 (0-270) | 89% | 58%
O=C1[O][Pt]2([NH][C@@H]3CCCC[C@H]3[NH]2)[O]C1=O [Oxaliplatin, oxaliplatin] | more sensitive | resistant | – | – | – | – | – | – | – | – | –

— US20260226552A1, “MUC5AC IN PANCREATIC DUCTAL ADENOCARCINOMA” (Ohio State Innovation Foundation, priority 2023, published 2026)
